# Reference: patent publication US12514882B2, “Faecalibacterium prausnitzii strain EB-FPDK11 and use thereof” (ENTEROBIOME INC., priority 2020, dated 2026)
# Columns and labels:
# Type in all cases: cell-based
# [1] = system: Faecalibacterium prausnitzii DSM 17677^T; assay: MIC, liquid medium microdilution (CLSI), standard strain; settings: for MIC breakpoint category (S/I/R): DSM 17677^T
# [2] = system: Faecalibacterium prausnitzii EB-FPDK11 strain; assay: MIC, liquid medium microdilution (CLSI), EB-FPDK11; settings: for MIC breakpoint category (S/I/R): EB-FPDK11; for resistance or susceptibility of the EB-FPDK11 strain to the agent (in words): text summary of Table 4
# [3] = system: Bacteroides thetaiotaomicron ATCC 29741; assay: MIC, liquid medium microdilution (CLSI), QC strain; settings: ATCC29741
compound,measurement,setting,value
"O=C(N[C@H](CO)[C@H](O)c1ccc([N+](=O)[O-])cc1)C(Cl)Cl [CHL, chloramphenicol]",MIC breakpoint category (S/I/R),[1]; CHL breakpoints,R (≥32)
same,MIC breakpoint category (S/I/R),[2]; CHL breakpoints,S (≤8)
same,resistance or susceptibility of the EB-FPDK11 strain to the agent (in words),[2],susceptibility
"CCC[C@@H]1C[C@@H](C(=O)N[C@@H]([C@H]2O[C@H](SC)[C@H](O)[C@@H](O)[C@H]2O)[C@H](C)Cl)N(C)C1 [CLI, clindamycin]",MIC breakpoint category (S/I/R),[1]; CLI breakpoints,(S) (≤2)
same,MIC breakpoint category (S/I/R),[2]; CLI breakpoints,(S) (≤2)
"CO/N=C(\C(=O)N[C@@H]1C(=O)N2C(C(=O)O)=CCS[C@H]12)c1csc(N)n1 [CTZ, ceftizoxime]",MIC breakpoint category (S/I/R),[1]; CTZ breakpoints,I (64)
same,MIC breakpoint category (S/I/R),[2]; CTZ breakpoints,R (≥128)
same,resistance or susceptibility of the EB-FPDK11 strain to the agent (in words),[2],resistance
"C[C@@H](O)[C@H]1C(=O)N2C(C(=O)O)=C(S[C@@H]3CN[C@H](C(=O)N(C)C)C3)[C@H](C)[C@H]12 [MEM, meropenem]",MIC,[3],0.5 µg/mL
same,MIC breakpoint category (S/I/R),[1]; MEM breakpoints,R (≥16)
same,MIC breakpoint category (S/I/R),[2]; MEM breakpoints,R (≥16)
same,resistance or susceptibility of the EB-FPDK11 strain to the agent (in words),[2],resistance
"Cc1ncc([N+](=O)[O-])n1CCO [MTZ, metronidazole]",MIC breakpoint category (S/I/R),[1]; MTZ breakpoints,S (≤8)
same,MIC breakpoint category (S/I/R),[2]; MTZ breakpoints,5
same,resistance or susceptibility of the EB-FPDK11 strain to the agent (in words),[2],susceptibility
"COc1c(N2C[C@@H]3CCCN[C@@H]3C2)c(F)cc2c(=O)c(C(=O)O)cn(C3CC3)c12 [MXF, moxifloxacin]",MIC breakpoint category (S/I/R),[1]; MXF breakpoints,R (≥8)
same,MIC breakpoint category (S/I/R),[2]; MXF breakpoints,R (≥8)
Piperacillin-tazobactam [PTZ],MIC breakpoint category (S/I/R),[1]; PTZ breakpoints,R (≥128/4)
same,MIC,[1]; test strain DSM 17677^T,256/4
same,MIC breakpoint category (S/I/R),[2]; PTZ breakpoints,R (≥128/4)
same,MIC,[2]; test strain EB-FPDK11,256/4
same,resistance or susceptibility of the EB-FPDK11 strain to the agent (in words),[2],resistance
